Source: PMC2748668 (Pharmacological research : the official journal of the …, 2009)
Where two headings read alike, the source gives them in different places.

What was measured:
[1] = molecular target: T1, human OATP1B1 (Homo sapiens, UniProt Q9Y6L6); assay: cell-based
T1 sequence (Q9Y6L6 1-691): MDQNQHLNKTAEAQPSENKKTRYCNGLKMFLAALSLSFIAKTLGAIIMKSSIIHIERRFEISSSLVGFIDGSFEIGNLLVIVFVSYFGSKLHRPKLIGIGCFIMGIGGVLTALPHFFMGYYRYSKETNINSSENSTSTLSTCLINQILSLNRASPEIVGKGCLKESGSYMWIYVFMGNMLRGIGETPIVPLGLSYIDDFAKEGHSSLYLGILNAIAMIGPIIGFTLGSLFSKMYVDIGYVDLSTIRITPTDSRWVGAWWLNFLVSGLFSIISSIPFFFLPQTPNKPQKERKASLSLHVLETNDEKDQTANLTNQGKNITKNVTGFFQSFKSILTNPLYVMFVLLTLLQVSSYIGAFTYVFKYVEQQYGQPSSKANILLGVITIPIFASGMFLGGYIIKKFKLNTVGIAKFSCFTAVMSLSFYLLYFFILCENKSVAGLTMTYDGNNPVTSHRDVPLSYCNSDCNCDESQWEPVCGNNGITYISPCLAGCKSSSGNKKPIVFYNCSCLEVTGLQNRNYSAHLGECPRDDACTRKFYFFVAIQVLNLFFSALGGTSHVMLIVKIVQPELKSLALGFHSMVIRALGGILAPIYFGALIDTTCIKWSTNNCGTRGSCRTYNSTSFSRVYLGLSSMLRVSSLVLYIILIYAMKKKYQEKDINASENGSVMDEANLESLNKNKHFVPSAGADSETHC

[2] = molecular target: T1, human OATP1B1; assay: Inhibition kinetic studies
[3] = tested on: OATP1B1; conditions: estrone-3-sulfate as substrate of OATP1B1; cited from earlier work
[4] = molecular target: T1, human OATP1B1
[5] = tested on: Oatp1a5; conditions: estrone-3-sulfate as substrate of Oatp1a5; cited from earlier work

| Ki [1] [µM] | SMILES | further results |
| --- | --- | --- |
|  | C[C@]12CC[C@@H]3c4ccc(O)cc4CC[C@H]3[C@@H]1CC[C@@H]2O[C@@H]1O[C@H](C(=O)O)[C@@H](O)[C@H](O)[C@H]1O | Km ([2]; Km of the model substrate given in the Ki column (footnote *), mean ± SD): 5.9 ± 1.2 µM |
| 45.2 ± 5.9 | CC(C)(Oc1ccc(CCNC(=O)c2ccc(Cl)cc2)cc1)C(=O)O [Bezafibrate] |  |
| 3.4 ± 0.5 | C[C@H](CCC(=O)O)[C@H]1CC[C@H]2[C@@H]3[C@H](O)C[C@@H]4C[C@H](O)CC[C@]4(C)[C@H]3CC[C@]12C [Chenodeoxycholic acid] |  |
| 7.6 ± 1.9 | Clc1ccccc1C(c1ccccc1)(c1ccccc1)n1ccnc1 [Clotrimazole] |  |
| 29.7 ± 5.7 | C[C@H](CCC(=O)O)[C@H]1CC[C@H]2[C@@H]3C(=O)C[C@@H]4CC(=O)CC[C@]4(C)[C@H]3CC(=O)[C@]12C [Dehydrocholic acid] |  |
| 3.2 ± 0.5 | C[C@H](CCC(=O)O)[C@H]1CC[C@H]2[C@@H]3CC[C@@H]4C[C@H](O)CC[C@]4(C)[C@H]3C[C@H](O)[C@]12C [Deoxycholic acid] |  |
| 3.3 ± 0.6 | C[C@]12CC[C@@H]3c4ccc(O)cc4CC[C@H]3[C@@H]1CC[C@@H]2O [Estradiol] |  |
|  | C[C@]12CC[C@@H]3c4ccc(OS(=O)(=O)O)cc4CC[C@H]3[C@@H]1CCC2=O [Estrone-3-sulfate] | Km [3]: 2.4 µM; Ki [4]: 0.2 ± 0.02 µM; Km [5]: 268 µM |
| 105 ± 26.7 | CC(C)OC(=O)C(C)(C)Oc1ccc(C(=O)c2ccc(Cl)cc2)cc1 [Fenofibrate] |  |
|  | CN(CCOc1ccc(C[C@H](Nc2ccccc2C(=O)c2ccccc2)C(=O)O)cc1)c1ccccn1 [GW1929] | Ki [4]: 0.3 ± 0.05 µM |
|  | CC(C)c1onc(-c2c(Cl)cccc2Cl)c1COc1ccc(/C=C/c2cccc(C(=O)O)c2)c(Cl)c1 [GW4064] | Ki [4]: 32.4 ± 6.7 µM |
| 22.2 ± 3.9 | C[C@H](CCC(=O)NCC(=O)O)[C@H]1CC[C@H]2[C@@H]3[C@H](O)C[C@@H]4C[C@H](O)CC[C@]4(C)[C@H]3C[C@H](O)[C@]12C [Glycocholic acid] |  |
| 1.2 ± 0.2 | C[C@H](CCC(=O)O)[C@H]1CC[C@H]2[C@@H]3CC[C@@H]4C[C@H](O)CC[C@]4(C)[C@H]3CC[C@]12C [Lithocholic acid] |  |
| 12.7 ± 1.9 | CC[C@H](C)C(=O)O[C@H]1C[C@@H](C)C=C2C=C[C@H](C)[C@H](CC[C@@H]3C[C@@H](O)CC(=O)O3)[C@H]21 [Mevinolin] |  |
| 2.2 ± 0.3 | CC#C[C@]1(O)CC[C@H]2[C@@H]3CCC4=CC(=O)CCC4=C3[C@@H](c3ccc(N(C)C)cc3)C[C@@]21C [Mifepristone] |  |
| 21.8 ± 3.6 | CC[C@H](C)C(=O)O[C@H]1C[C@H](O)C=C2C=C[C@H](C)[C@H](CC[C@@H](O)C[C@@H](O)CC(=O)O)[C@H]21 [Pravastatin] |  |
|  | C[C@H](CCC(=O)NCCS(=O)(=O)O)[C@H]1CC[C@H]2[C@@H]3[C@H](O)C[C@@H]4C[C@H](O)CC[C@]4(C)[C@H]3C[C@H](O)[C@]12C [Taurocholic acid] | Ki [2]: 11.4 ± 3.2 µM |
| 1.6 ± 0.11 | Cc1cccc(Nc2cc(Cl)nc(SCC(=O)O)n2)c1C [WY-14643] |  |

| SMILES | Ki [1] [µM] | further results |
| --- | --- | --- |
| C[C@@]12CCC[C@H]1[C@@H]1CC[C@H]3CCCC[C@]3(C)[C@H]1CC2 | 374 ± 123 |  |
| C[C@H](CCC(=O)O)[C@H]1CC[C@H]2[C@@H]3[C@H](O)C[C@@H]4C[C@H](O)CC[C@]4(C)[C@H]3C[C@H](O)[C@]12C [Cholic acid] | 25 ± 3.3 |  |
| NC(Cc1cc(I)c(Oc2cc(I)c(O)c(I)c2)c(I)c1)C(=O)O (centres unmarked) [Thyroxine] | 3.5 ± 0.7 |  |
